Experimental data as given in PubChem BioAssay AID256 (DTP/NCI, 2004).
Toxic doses and inconclusive results are not listed.

System: CD2F1 mice, L1210 leukemia ip, survival T/C
Test: NCI In Vivo Anticancer Drug Screen. Data for tumor model L1210 Leukemia (intraperitoneal) in CD2F1 (CDF1) mice
Details: higher = longer survival
In short: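 Transplantable tumor in mice; compound-treated vs vehicle-treated groups. Read-out = treated/control ratio of the measured endpoint.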

[1] = endpoint: mean survival time, dose: 100.0 mg/kg/injection, schedule: Q04DX002 (ip), vehicle: saline with Tween-80
[2] = endpoint: mean survival time, dose: 200.0 mg/kg/injection, schedule: Q04DX002 (ip), vehicle: saline with Tween-80

O=C(O)c1[nH]nc(-c2ccc([N+](=O)[O-])cc2)c1[N+](=O)[O-]
T/C (endpoint: mean survival time, dose: 4.7 mg/kg/injection, schedule: Q01DX005 (ip), vehicle: water): 86 % of control | T/C (endpoint: mean survival time, dose: 9.4 mg/kg/injection, schedule: Q01DX005 (ip), vehicle: water): 90 % of control | T/C (endpoint: mean survival time, dose: 18.8 mg/kg/injection, schedule: Q01DX005 (ip), vehicle: water): 90 % of control | T/C (endpoint: mean survival time, dose: 37.5 mg/kg/injection, schedule: Q01DX005 (ip), vehicle: water): 104 % of control | T/C (endpoint: mean survival time, dose: 50.0 mg/kg/injection, schedule: Q01DX005 (ip), vehicle: water): 97 % of control | T/C (endpoint: mean survival time, dose: 75.0 mg/kg/injection, schedule: Q01DX005 (ip), vehicle: water): 93 % of control | T/C (endpoint: mean survival time, dose: 100.0 mg/kg/injection, schedule: Q01DX005 (ip), vehicle: water): 93 % of control | T/C (endpoint: mean survival time, dose: 200.0 mg/kg/injection, schedule: Q01DX005 (ip), vehicle: water): 89 % of control | T/C (endpoint: mean survival time, dose: 400.0 mg/kg/injection, schedule: Q01DX005 (ip), vehicle: water): 101 % of control

CC(=O)OCC1=C(COC(C)=O)C2OC1C(OC(C)=O)C2OC(C)=O (configuration not stated)
T/C [1]: 102 % of control | T/C [2]: 98 % of control | T/C (endpoint: mean survival time, dose: 400.0 mg/kg/injection, schedule: Q04DX002 (ip), vehicle: saline with Tween-80): 94 % of control

CCCCCCCCCCCCCCCCCCOc1ccc(Cl)cc1
T/C [1]: 90 % of control | T/C [2]: 93 % of control

CC[C@@]1(O)C(=O)OCc2c1cc1n(c2=O)Cc2cc3c(CN(C)C)c(O)ccc3nc2-1
T/C (endpoint: median survival time, dose: 5.0 mg/kg/injection, schedule: Q04DX002 (ip), vehicle: water): 119 % of control | T/C (endpoint: median survival time, dose: 20.0 mg/kg/injection, schedule: Q04DX002 (ip), vehicle: water): 183 % of control | T/C (endpoint: median survival time, dose: 40.0 mg/kg/injection, schedule: Q04DX002 (ip), vehicle: water): 264 % of control
